# Reference: patent US7439063B2, “Neuroprotective synergy of erythropoietin and insulin-like growth factors” (Burnham Institute for Medical Research, priority 2002, dated 2008)
# Where two headings read alike, the source gives them in different places.
# How the values were obtained:
# erythropoietin receptor = biological target: T1, erythropoietin receptor (Homo sapiens, UniProt P19235); conditions: known erythropoietin mimetic peptides; cited from earlier work
# T1 sequence (P19235 25-249 limits assumed): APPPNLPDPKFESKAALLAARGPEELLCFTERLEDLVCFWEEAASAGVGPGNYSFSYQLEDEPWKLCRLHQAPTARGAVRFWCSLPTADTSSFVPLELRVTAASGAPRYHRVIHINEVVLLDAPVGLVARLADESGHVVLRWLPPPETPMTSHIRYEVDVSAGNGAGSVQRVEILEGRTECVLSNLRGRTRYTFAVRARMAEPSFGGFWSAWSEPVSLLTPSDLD
# [1] = system: rat primary cerebrocortical cultures
# Method: The neuroprotective effects of concurrent EPO and IGF-I administration were compared to individual treatment with EPO or IGF-I in rat primary cerebrocortical cultures.
# Neuronal apoptosis was quantified by double labeling for TUNEL reactivity, which in conjunction with condensed morphology is indicative of apoptosis, and the neuron-specific protein microtubule associated protein-2 (MAP2) 16 hours after NMDA insult.
# For these experiments, mixed neuronal/glial cerebrocortical cultures were prepared as described previously (Bonfoco et al., supra, 1995); Lei et al., Neuron 8:1087-1099 (1992); and Lipton et al., Nature 364:626-632 (1993)). In brief, cortical tissue from embryonic day 16 Sprague-Dawley rats was dissociated in 0.5% trypsin and plated on poly-L-lysine coated glass coverslips at a density of 10^5 cells per 35 mm culture dish in serum-containing medium. Prior to experimental use, cerebrocortical neurons were kept at 37° C. and 5% CO2 for at least 17 days to permit full expression of NMDA receptors (Lei et al., supra, 1992; and Lipton et al., supra, 1993).
# EPO and IGF-I incubations were performed essentially as follows. Human recombinant EPO purchased from Amgen (Epoietin alfa, 2000 IU/ml) was diluted in cell culture medium to a final concentration of 5-10 U/ml. Insulin-like growth factor-I (IGF-I) (Calbiochem; La Jolla, Calif.) was diluted in cell culture medium to a final concentration of 50-100 ng/ml.
# NMDA incubations were performed as follows. Cerebrocortical cultures were exposed to 200 μM NMDA in nominally Mg^2+-free Earle's Balanced Salt Solution (EBSS), containing 1.8 mM CaCl2 and 5 μM glycine for 20 minutes. After NMDA exposure, cultures were washed with EBSS and then placed in conditioned tissue culture medium filtered with a […] Acrodisk filter (Perkin-Elmer; Wellesley, Mass.) to remove activated microglia. Where indicated, EPO, IGF-I or both EPO and IGF-I were added to the conditioned media.
# Detection of apoptotic neurons was performed essentially as follows. After experimental incubation, cerebrocortical cultures were fixed in PBS (150 mM NaCl, 1.7 mM monobasic sodium phosphate, 9.1 mM dibasic sodium phosphate) with 4% paraformaldehyde, and permeabilized in PBS containing 1% Tween-20. Apoptotic cells were identified by condensed morphology in conjunction with TUNEL using the Apoptosis Detection System (Promega; Madison, Wis.). […]
# For PI3-kinase inhibition, cultures were prepared and incubated with NMDA alone, or with EPO or IGF-I individually, or EPO in combination with IGF-I, as described above. […] Neuronal apoptosis was assessed 16 hours after NMDA application by determining the percentage of MAP2-positive cells that were also TUNEL positive, as described above.
# caspase-3 = test: Caspase-3 (DEVD) cleavage assay in culture lysates; format: cell-based, rat; conditions: lysates 16 hours after NMDA exposure; simultaneous application or 3 hour preincubation
# Method: To study the effect of combined EPO/IGF-I treatment on proteolytic activity of caspase-3, protein lysates were prepared from cerebrocortical cultures 16 hours after NMDA exposure, and caspase-3 activity was assayed using the fluorescent caspase-3 substrate, DEVD-7-amino-4-trifluoromethyl-coumarin (DEVD-AFC).
# Caspase-3 (DEVD) cleavage assays were performed as described previously. Briefly, cerebrocortical cultures were lysed in cold buffer containing 10% sucrose, 0.1% CHAPS, 100 mM HEPES (pH 7.5), and 10 mM dithiothreitol (DTT). Cytoplasmic protein extracts (200 μg) were incubated for 30 minutes at 37° C. with 80 μM caspase-3 peptide substrate DEVD-AFC (Enzyme Systems Products; Livermore, Calif.). Free fluorescent AFC released by caspase-3 activity was measured on a FluoroMax2 fluorometer at 400 nm excitation and 505 nm emission.
# [2] = system: active caspase-3/XIAP complex; test: XIAP associated with active caspase-3 (immunoprecipitation, densitometry); format: cell-based, rat; conditions: NMDA exposure alone
# Method: In mixed cerebrocortical cultures, EPO is known to induce expression of XIAP and c-IAP, two related factors capable of inhibiting caspase-3 proteolytic activity (Digicaylioglu and Lipton, supra, 2001; and Holcik and Korneluk, Nat. Rev. Mol. Cell. Biol. 2:550-556 (2001)). Here, cerebrocortical cultures were analyzed for the effect of combined EPO and IGF-I treatment on association of XIAP and active caspase-3. Cultures were incubated with EPO, IGF-I and NMDA and, after immunoprecipitation of the active form of caspase-3, immunoprecipitates were probed for the presence of XIAP using western blotting.
# To perform these experiments, cerebrocortical cultures were exposed to NMDA, or EPO and IGF-I, or concurrently exposed to NMDA and EPO/IGF-I as described above. Immunoprecipitation of culture lysates was performed using precleared whole-cell lysates, incubated with a 1:100 dilution of antibody specifically recognizing the cleaved form of caspase-3 (Cell Signaling Technologies) for one hour at room temperature, followed by addition of protein A/G-Sepharose beads and immunoprecipitation as described above. The immunoprecipitates were separated by electrophoresis and transferred to a nitrocellulose membrane, which was blotted with a 1:200 dilution of anti-XIAP antibody (Trevigen; Gaithersburg, Md.).
# Akt = Akt phosphorylation on serine-473 (immunoblot); format: cell-based, rat
# cerebrocortical neurons = conditions: 6, 12, 16 and 48 hours after NMDA exposure; mixed neuronal-glial cultures
# Method: The total number of viable MAP2 positive cells was assayed to avoid the effects of secondary necrosis seen at longer survival times (Bonfoco et al., supra, 1995).
# Neuronal survival was assayed as the total number of MAP2 positive cells to avoid the confounding effects of secondary necrosis, which can occur at later time points and obfuscate the number of apoptotic cells (Bonfoco et al., supra, 1995).
# [3] = brain delivery of intranasally applied radiolabeled EPO (autoradiography); format: in vivo
# Excerpt: As disclosed herein, EPO or an active fragment or analog thereof can cross the blood-brain barrier following intranasal administration, whereby unwanted systemic effects such as increased hematocrit can be avoided.
# [4] = naturally occurring peptide; cited from earlier work
# [5] = system: focal cerebral ischemic damage; conditions: administered intranasally; cited from earlier work
# [6] = system: p85 subunit of PI3-kinase; test: phosphorylation of the p85 subunit of PI3-kinase (immunoblot); format: cell-based, rat; conditions: IGF-I: maximal phosphorylation; EPO: phosphorylation observed; treated 10, 20 or 30 minutes
# Method: PI3-kinase is activated by phosphorylation of a p85 regulatory subunit, which leads to release of the catalytic subunit (Pleiman et al., Science 263:1609-1612 (1994)). To determine if EPO or IGF-I induces phosphorylation of the p85 subunit of PI3-kinase, rat cerebrocortical cultures were treated with EPO or IGF-I for 10, 20 or 30 minutes, and protein lysates from these cultures analyzed by immunoblotting for the presence of phospho-p85. As shown in FIG. 5B (upper and lower panels), both factors induced p85 phosphorylation in a time-dependent manner. […] Equal protein loading was confirmed by analyzing the amounts of total p85 with a second antibody.
# Preparation of total cell extracts for immunoblotting or immunoprecipitation was performed essentially as follows. Cultures were washed briefly in cold PBS. After addition of ice cold lysis buffer (50 mM Tris-Cl, 150 mM NaCl, 1.1 mM PMSF, 10 μg/ml Aprotinin, 1% Triton X-100, pH 8.0, 2 mM Ortho-Vanadate, 0.1% deoxycholate), cells were scraped off the culture dishes. Lysates were transferred to a microcentrifuge tube, vortexed for 15 seconds at 4° C., and cleared by centrifugation for 20 minutes at 14,000×g at […]. Protein concentrations were determined using a BCAProtein assay kit (Pierce; Rockford, Ill.).
# Immunoblotting was performed as follows. […]
compound,measurement,setting,value
GGCRIGPITWVCGG [AF11154],IC50,erythropoietin receptor,10000 nM
GGTYSCHFGPLTWVCKPQGO [EMP1],IC50,erythropoietin receptor,200 nM
GGLYLCRFGPVTWDCGYKGG [EMP5],IC50,erythropoietin receptor,1000 nM
VGNYMCHFGPITWVCRPGGG [EMP4],IC50,erythropoietin receptor,500 nM
"CN[C@H](CC(=O)O)C(=O)O [NMDA, N-methyl-D-aspartate]","apoptotic appearance and TUNEL reactivity, % of MAP2-labeled neurons","[1]; 200 μM NMDA for 20 minutes alone, 16 hours after NMDA insult",76+7%
same,caspase-3-like activity (DEVD cleavage),caspase-3,increased DEVD cleavage
same,"amount of XIAP associated with active caspase-3, NMDA alone",[2],modest increase
same,constitutive levels of Akt phosphorylation,Akt; 20-minute exposure to NMDA,reduced constitutive levels of Akt phosphorylation
same,number of surviving neurons in mixed cultures,cerebrocortical neurons,dramatic decrease in the number of surviving neurons
GGVYACRMGPITWVCSPLGC [EMP3],IC50,erythropoietin receptor,300 nM
radiolabeled EPO: intranasally applied radiolabeled erythropoietin,distribution after intranasal application,[3],migrated into olfactory tissue and was observed in the rostral migratory stream
same,distribution after intranasal application,[3]; listed as radiolabeled erythropoietin,accumulated in brain tissue
GGDYHCRMGPLTWVCKPLGG [EMP2],IC50,erythropoietin receptor,200 nM
"IGF-II: naturally occurring, relatively neutral peptide with 60% amino acid homology to native IGF-I",pI,[4],6.4
"IGF-I: Insulin-like growth factor-I (Calbiochem), also known as somatomedin C, a hormone of 70 amino acids","cell death, treatment at the time of NMDA insult",[1]; factor applied individually at the time of NMDA insult,did not significantly reduce cell death
same,neuronal viability in control incubations,[1]; in the absence of NMDA exposure,did not affect neuronal viability
same,neuronal apoptosis after preincubation,"[1]; preincubation for three hours before NMDA, EPO 10 U/ml, IGF-I 100 ng/ml",significantly attenuated neuronal apoptosis
same,pI,[4],8.4
same,protection against focal cerebral ischemic damage,[5],can protect against focal cerebral ischemic damage
same,time to phosphorylation of p85 subunit of PI3-kinase,[6],10 min
same,phospho-serine-473 Akt,Akt; three hour incubation,moderate Akt activation
